Data from publication PMC6041282, “Inhibition and Eradication of Pseudomonas aeruginosa Biofilms by Host Defence Peptides” (Scientific Reports, 2018).
In brackets after ≈: the same amount, converted by molar mass. Where no end group is shown, it is not given here.

What follows are compounds tested on planktonic P. aeruginosa. Conditions: broth dilution in MHB, 0-40 μM peptide, no visual growth after 24 h at 37 °C, polypropylene 96 wells plate.
Procedure: Antimicrobial activity of HDP’s against planktonic P. aeruginosa was assessed using broth dilution assays. An overnight culture of P. aeruginosa was grown in MHB at 37 °C to mid-logarithmic phase and diluted to 2 × 10^6 CFU/ml. In a round bottom polypropylene 96 wells plate 50 μl bacteria were mixed with 50 μl of HDP (final concentration 0–40 μM). MIC was defined as the concentration of peptide which inhibited visual growth of bacteria in the wells after 24 h incubation at 37 °C. Subsequently, wells without visual growth were plated out on TSA plates and incubated at 37 °C for 24 h to determine the MBC.

Row | Compound | MIC [µM]
1 | CC[C@H](C)[C@H](NC(=O)[C@H](CCCCN)NC(=O)[C@H](CCC(=O)O)NC(=O)[C@H](CCCCN)NC(=O)[C@H](CO)NC(=O)[C@H](CCCCN)NC(=O)[C@H](CCCNC(=N)N)NC(=O)[C@H](Cc1ccccc1)NC(=O)[C@H](Cc1ccccc1)NC(=O)[C@H](CC(=O)O)NC(=O)CNC(=O)[C@H](CC(C)C)NC(=O)[C@@H](N)CC(C)C)C(=O)NCC(=O)N[C@@H](CCCCN)C(=O)N[C@@H](CCC(=O)O)C(=O)N[C@@H](Cc1ccccc1)C(=O)N[C@@H](CCCCN)C(=O)N[C@@H](CCCNC(=N)N)C(=O)N[C@H](C(=O)N[C@H](C(=O)N[C@@H](CCC(N)=O)C(=O)N[C@@H](CCCNC(=N)N)C(=O)N[C@H](C(=O)N[C@@H](CCCCN)C(=O)N[C@@H](CC(=O)O)C(=O)N[C@@H](Cc1ccccc1)C(=O)N[C@@H](CC(C)C)C(=O)N[C@@H](CCCNC(=N)N)C(=O)N[C@@H](CC(N)=O)C(=O)N[C@@H](CC(C)C)C(=O)N[C@H](C(=O)N1CCC[C@H]1C(=O)N[C@@H](CCCNC(=N)N)C(=O)N[C@H](C(=O)N[C@@H](CCC(=O)O)C(=O)N[C@@H](CO)C(=O)O)[C@@H](C)O)C(C)C)[C@@H](C)CC)C(C)C)[C@@H](C)CC [LL-37] | 10 (≈ 44.9 µg/mL)
2 | GLLRKGGEKIGEKLKKIGQKIKNFFQKLVPQPEQ [CRAMP] | 40

Same assay, conditions: planktonic, 24 h

Row | Compound | MBC [µM] | MIC [µM]
3 | KRFGRLAKSFLRMRILLPRRKILLAS [eCATH-1] | 5 to 10 | 2.5 to 5
4 | KRFHSVGSLIQRHQQMIRDKSEATRHGIRIITRPKLLLAS [eCATH-3] | > 40 | > 40
5 | KRRHWFPLSFQEFLEQLRRFRDQLPFP [eCATH-2] | > 40 | > 40
6 | RFGRFLRKIRRFRPKVTITIQGSARF [cCATH-2] | 10 to 20 | 5 to 10
7 | RIIDLLWRVRRPQKPKFVTVWVR [PMAP-23] | > 40 | 40
8 | RLKELITTGGQKIGEKIRRIGQRIKDFFKNLQPREEKS [K9CATH] | > 40 | 40
9 | RRRPRPPYLPRPRPPPFFPPRLPPRIPPGFPPRFPPRFP [PR-39] | 10 | 5 to 10
10 | RVKRFWPLVPVAINTVAAGINLYKAIRRK [cCATH-3] | 5 to 10 | 

Same assay, conditions: wells without visual growth plated on TSA, 24 h at 37 °C

Row | Compound | MBC [µM]
11 | CC[C@H](C)[C@H](NC(=O)[C@H](CCCCN)NC(=O)[C@H](CCC(=O)O)NC(=O)[C@H](CCCCN)NC(=O)[C@H](CO)NC(=O)[C@H](CCCCN)NC(=O)[C@H](CCCNC(=N)N)NC(=O)[C@H](Cc1ccccc1)NC(=O)[C@H](Cc1ccccc1)NC(=O)[C@H](CC(=O)O)NC(=O)CNC(=O)[C@H](CC(C)C)NC(=O)[C@@H](N)CC(C)C)C(=O)NCC(=O)N[C@@H](CCCCN)C(=O)N[C@@H](CCC(=O)O)C(=O)N[C@@H](Cc1ccccc1)C(=O)N[C@@H](CCCCN)C(=O)N[C@@H](CCCNC(=N)N)C(=O)N[C@H](C(=O)N[C@H](C(=O)N[C@@H](CCC(N)=O)C(=O)N[C@@H](CCCNC(=N)N)C(=O)N[C@H](C(=O)N[C@@H](CCCCN)C(=O)N[C@@H](CC(=O)O)C(=O)N[C@@H](Cc1ccccc1)C(=O)N[C@@H](CC(C)C)C(=O)N[C@@H](CCCNC(=N)N)C(=O)N[C@@H](CC(N)=O)C(=O)N[C@@H](CC(C)C)C(=O)N[C@H](C(=O)N1CCC[C@H]1C(=O)N[C@@H](CCCNC(=N)N)C(=O)N[C@H](C(=O)N[C@@H](CCC(=O)O)C(=O)N[C@@H](CO)C(=O)O)[C@@H](C)O)C(C)C)[C@@H](C)CC)C(C)C)[C@@H](C)CC [LL-37] | 10 to 20
12 | GLLRKGGEKIGEKLKKIGQKIKNFFQKLVPQPEQ [CRAMP] | > 40
